The target in experiment [1] is T1, Cholecystokinin receptor type A (Rattus norvegicus, UniProt P30551).
T1 sequence (P30551 whole entry): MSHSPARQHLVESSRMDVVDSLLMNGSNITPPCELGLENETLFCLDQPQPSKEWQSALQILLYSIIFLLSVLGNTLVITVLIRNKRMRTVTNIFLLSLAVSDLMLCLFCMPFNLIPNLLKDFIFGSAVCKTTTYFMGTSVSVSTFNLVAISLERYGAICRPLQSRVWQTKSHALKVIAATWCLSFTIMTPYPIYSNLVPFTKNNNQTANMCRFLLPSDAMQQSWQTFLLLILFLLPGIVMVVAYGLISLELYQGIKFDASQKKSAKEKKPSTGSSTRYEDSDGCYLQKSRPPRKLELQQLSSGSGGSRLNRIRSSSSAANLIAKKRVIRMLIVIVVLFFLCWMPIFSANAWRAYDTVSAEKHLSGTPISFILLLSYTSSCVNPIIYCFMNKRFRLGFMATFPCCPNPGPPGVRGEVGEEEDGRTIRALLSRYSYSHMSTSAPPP
The experiment can be described thus: Inhibition of binding of [125I]CCK-8 to cholecystokinin type A receptor in rat pancreatic tissue.

For the next experiment, the species on record is Cavia porcellus. The experiment can be described thus: Selectivity ratio between CCK-B and CCK-A receptor. Also on record: reference not given here.

Each structure is given as a SMILES string. Some results are limits rather than exact numbers.

Usually IC50 stands for the point on the concentration scale where inhibition reaches its midpoint. On to `CCOC(=O)CCN1C(=O)C(NC(=O)Nc2cccc(OC)c2)N=C(c2ccccc2)c2ccccc21` (racemic), for which, in experiment [1], the IC50 was determined as 340 nM. Moreover, the Selectivity ratio in the experiment listed under Cavia porcellus is 340.

For the compound `CN1C(=O)C(NC(=O)Nc2cccc(F)c2)N=C(c2ccccc2)c2ccccc21` (racemic), the Selectivity ratio in the experiment filed under Cavia porcellus was found to be 0.2.

For `CN1C(=O)C(NC(=O)Nc2ccc(N)nc2)N=C(c2ccccc2)c2ccccc21` (stereo not drawn), the half-maximal inhibitory concentration (IC50) in experiment [1] turned out to be 3000 nM. Also, the Selectivity ratio in the experiment filed under Cavia porcellus amounted to 6.

In experiment [1], `CN1C(=O)C(NC(=O)Nc2ccc(C(F)(F)F)cc2)N=C(c2ccccc2)c2ccccc21` (stereo not drawn) gave a half-maximal inhibitory concentration (IC50) of 1300 nM. Besides, the Selectivity ratio in the experiment filed under Cavia porcellus turned out to be 228.

Take `CCOC(=O)CCN1C(=O)C(NC(=O)Nc2ccc(Cl)cc2)N=C(c2ccccc2)c2ccccc21` (racemic): the Selectivity ratio in the experiment listed under Cavia porcellus is 204.

In turn, `CCN(CC)C(=O)CN1C(=O)C(NC(=O)Nc2ccccc2Cl)N=C(c2ccccc2)c2ccccc21` (racemic) registered an IC50 in experiment [1] of 200 nM. Also, in the experiment filed under Cavia porcellus, the Selectivity ratio stood at 53.

The compound `CN1C(=O)[C@@H](NC(=O)c2ccc(C(F)(F)F)cc2)N=C(c2ccccc2)c2ccccc21` had an IC50 in experiment [1] of 1300 nM. The Selectivity ratio in the experiment filed under Cavia porcellus stood at 0.3.

For the compound `COc1cccc(NC(=O)NC2N=C(c3ccccc3)c3ccccc3N(CCN(C)C)C2=O)c1` (racemic), the IC50 in experiment [1] amounted to 3090 nM. Also, the Selectivity ratio in the experiment listed under Cavia porcellus came to 16.

The compound `COc1ccc(NC(=O)NC2N=C(c3ccccc3)c3ccccc3N(C)C2=O)cn1` (stereo not drawn) had an IC50 in experiment [1] of 2900 nM. For the same compound, the Selectivity ratio in the experiment filed under Cavia porcellus was found to be 6.3.

Compound `Cc1cccc(NC(=O)NC2N=C(c3ccccc3)c3ccccc3N(CC(=O)N3CCN(C)CC3)C2=O)c1` (racemic) registered an IC50 in experiment [1] of 760 nM. The Selectivity ratio in the experiment filed under Cavia porcellus is 217.

Regarding `CCOC(=O)CN1C(=O)C(NC(=O)Nc2ccc(Cl)cc2)N=C(c2ccccc2)c2ccccc21` (racemic), the Selectivity ratio in the experiment filed under Cavia porcellus was determined as 370.

As for `CN1C(=O)C(NC(N)=O)N=C(c2ccccc2)c2ccccc21` (racemic), the IC50 in experiment [1] worked out at 55000 nM. In the experiment listed under Cavia porcellus, the Selectivity ratio was > 0.5.

`CN1C(=O)[C@H](NC(=O)Nc2ccc(Cl)cc2)N=C(c2ccccc2)c2ccccc21` yielded an IC50 in experiment [1] of 2200 nM. For the same compound, the Selectivity ratio in the experiment listed under Cavia porcellus came out at 112.

As for `COC(=O)Cc1cccc(NC(=O)NC2N=C(c3ccccc3)c3ccccc3N(C)C2=O)c1` (stereo not drawn), the IC50 in experiment [1] is 2100 nM. Also, the Selectivity ratio in the experiment listed under Cavia porcellus amounted to 64.

Take `CC(=O)Oc1cccc(NC(=O)N[C@@H]2N=C(c3ccccc3)c3ccccc3N(C)C2=O)c1`: the IC50 in experiment [1] amounted to 6600 nM. Further, the Selectivity ratio in the experiment filed under Cavia porcellus was 13.

In the case of `CCOC(=O)CN1C(=O)C(NC(=O)c2ccccc2Cl)N=C(c2ccccc2F)c2ccccc21` (racemic), the Selectivity ratio in the experiment filed under Cavia porcellus is > 9.

As for `CN1C(=O)[C@H](NC(=O)Nc2cccc(Cl)c2)N=C(c2ccccc2)c2ccccc21`, the Selectivity ratio in the experiment filed under Cavia porcellus worked out at 39.

For the compound `CN1C(=O)[C@H](NC(=O)Nc2cccc(Br)c2)N=C(c2ccccc2)c2ccccc21`, in the experiment listed under Cavia porcellus, the Selectivity ratio is 221.

On to `CN1C(=O)C(NC(=O)Nc2ccc3c(c2)CCC3)N=C(c2ccccc2)c2ccccc21` (stereo not drawn), for which the IC50 in experiment [1] came out at 900 nM. Besides, in the experiment listed under Cavia porcellus, the Selectivity ratio worked out at 333.

As to `CCNC(=O)CN1C(=O)C(NC(=O)Nc2ccc(Cl)cc2)N=C(c2ccccc2)c2ccccc21` (racemic), in the experiment listed under Cavia porcellus, the Selectivity ratio was 191.

Consider `CN1C(=O)C(NC(=O)Nc2cccc(Br)c2)N=C(c2ccccc2)c2ccccc21` (racemic), for which the Selectivity ratio in the experiment filed under Cavia porcellus came out at 1.

As to `Cc1cccc(NC(=O)N[C@H]2N=C(c3ccccc3)c3ccccc3N(C)C2=O)c1`, the 50% inhibitory concentration (IC50) in experiment [1] was 4.7 nM.

In the case of `COc1cccc(NC(=O)N[C@@H]2N=C(c3ccccc3)c3ccccc3N(C)C2=O)c1`, in the experiment filed under Cavia porcellus, the Selectivity ratio turned out to be 272.

With `CN1C(=O)C(NC(=O)NC(C)(C)C)N=C(c2ccccc2)c2ccccc21` (racemic), the Selectivity ratio in the experiment listed under Cavia porcellus worked out at 0.2.

In the case of `COc1cccc(NC(=O)NC2N=C(c3ccccc3)c3ccccc3N(C)C2=O)c1` (racemic), in the experiment listed under Cavia porcellus, the Selectivity ratio was determined as 2.

As for `CCN(CC)C(=O)CN1C(=O)C(NC(=O)Nc2ccc(Cl)cc2)N=C(c2ccccc2)c2ccccc21` (racemic), the Selectivity ratio in the experiment filed under Cavia porcellus stood at 667.

With `CN1C(=O)C(NC(=O)Nc2ccc(F)cc2)N=C(c2ccccc2)c2ccccc21` (stereo not drawn), in the experiment listed under Cavia porcellus, the Selectivity ratio was 0.7.

As to `COc1ccccc1NC(=O)NC1N=C(c2ccccc2)c2ccccc2N(C)C1=O` (racemic), the Selectivity ratio in the experiment filed under Cavia porcellus stood at 0.5.

As for `CN1C(=O)C(NC(=O)NC2CCCCC2)N=C(c2ccccc2)c2ccccc21` (racemic), the Selectivity ratio in the experiment listed under Cavia porcellus was determined as 0.8.

As for `O=C(Nc1ccc(Cl)cc1)NC1N=C(c2ccccc2)c2ccccc2N(Cc2nn[nH]n2)C1=O` (racemic), the Selectivity ratio in the experiment filed under Cavia porcellus worked out at 4.

`CN1C(=O)C(NC(=O)Nc2ccc(Cl)c(Cl)c2)N=C(c2ccccc2)c2ccccc21` (racemic): the Selectivity ratio in the experiment filed under Cavia porcellus was determined as 0.4.

Take `Cc1cccc(NC(=O)NC2N=C(c3ccccc3)c3ccccc3N(Cc3ncc[nH]3)C2=O)c1` (racemic): the Selectivity ratio in the experiment listed under Cavia porcellus was 4.

As for `CN1C(=O)C(NC(=O)Nc2cccc(Cl)c2)N=C(c2ccccc2)c2ccccc21` (racemic), the Selectivity ratio in the experiment listed under Cavia porcellus came to 1.

As to `CN1CCN(C(=O)CN2C(=O)C(NC(=O)Nc3ccc(Cl)cc3)N=C(c3ccccc3)c3ccccc32)CC1` (racemic), the Selectivity ratio in the experiment filed under Cavia porcellus is 1500.

Turning to `CN1C(=O)C(NC(=O)Nc2ccc(Cl)cc2Cl)N=C(c2ccccc2)c2ccccc21` (racemic), the Selectivity ratio in the experiment filed under Cavia porcellus turned out to be 0.01.

As to `CN1C(=O)C(NC(=O)Nc2ccccc2)N=C(c2ccccc2)c2ccccc21` (racemic), the Selectivity ratio in the experiment filed under Cavia porcellus was determined as 0.26.

Turning to `CN1C(=O)C(NC(=O)Nc2ccccc2[N+](=O)[O-])N=C(c2ccccc2)c2ccccc21` (racemic), the Selectivity ratio in the experiment filed under Cavia porcellus is < 0.01.

With `O=C(Nc1ccc(Cl)cc1)NC1N=C(c2ccccc2)c2ccccc2N(Cc2nnn[nH]2)C1=O` (racemic), in experiment [1], the half-inhibitory concentration (IC50) came to 2100 nM.

Turning to `Cc1cccc(NC(=O)NC2N=C(c3ccccc3)c3ccccc3N(Cc3c[nH]cn3)C2=O)c1` (racemic), the Selectivity ratio in the experiment filed under Cavia porcellus came out at 1.

`CN1C(=O)C(NC(=O)Nc2cccc([N+](=O)[O-])c2)N=C(c2ccccc2)c2ccccc21` (racemic): in the experiment filed under Cavia porcellus, the Selectivity ratio was determined as 3.

On to `O=C(CN1C(=O)C(NC(=O)Nc2ccc(Cl)cc2)N=C(c2ccccc2)c2ccccc21)NCc1ccccc1` (racemic), for which the Selectivity ratio in the experiment filed under Cavia porcellus is 24.

In the case of `CN1C(=O)C(NC(=O)Nc2ccc([N+](=O)[O-])cc2)N=C(c2ccccc2)c2ccccc21` (racemic), in the experiment listed under Cavia porcellus, the Selectivity ratio stood at 4.5.

As for `COc1cc(NC(=O)NC2N=C(c3ccccc3)c3ccccc3N(C)C2=O)cc(OC)c1` (racemic), in the experiment filed under Cavia porcellus, the Selectivity ratio is 0.1.

For the compound `O=C(O)CN1C(=O)C(NC(=O)Nc2ccc(Cl)cc2)N=C(c2ccccc2)c2ccccc21` (racemic), the Selectivity ratio in the experiment filed under Cavia porcellus was determined as 0.77.

As for `CN1C(=O)C(NC(=O)Nc2ccc(Br)cc2)N=C(c2ccccc2)c2ccccc21` (racemic), the Selectivity ratio in the experiment filed under Cavia porcellus came out at 2.7.

On to `CN1C(=O)C(NC(=O)NCc2ccccc2)N=C(c2ccccc2)c2ccccc21` (racemic), for which the Selectivity ratio in the experiment listed under Cavia porcellus came to 0.6.

As for `CN1C(=O)C(NC(=O)Nc2ccc(C(=O)O)cc2)N=C(c2ccccc2)c2ccccc21` (racemic), the IC50 in experiment [1] is > 10000 nM.

For the compound `O=C(Nc1ccc(Cl)cc1)NC1N=C(c2ccccc2)c2ccccc2N(CC(=O)OCc2ccccc2)C1=O` (racemic), the Selectivity ratio in the experiment filed under Cavia porcellus was 30.

As to `COc1cccc(NC(=O)N[C@H]2N=C(c3ccccc3)c3ccccc3N(C)C2=O)c1`, the Selectivity ratio in the experiment listed under Cavia porcellus is < 0.01.

With `CN1C(=O)[C@H](NC(=O)c2ccc(C(F)(F)F)cc2)N=C(c2ccccc2)c2ccccc21`, the Selectivity ratio in the experiment listed under Cavia porcellus amounted to 35.

These data come from ChEMBL document CHEMBL1126970, “Development of 1,4-benzodiazepine cholecystokinin type B antagonists” (J Med Chem, 1993).
